Reference: patent US20230064990A1, “DOSING REGIMENS AND METHODS FOR TREATING CANCER” (Panbela Therapeutics, Inc., priority 2020, published 2023)
Several values for one entry are separate records, joined by “and”; a condition that tells them apart may be missing. Identical values can stand only once. Like-named read-outs stand apart in the source and are kept apart here.

Columns and labels:
six human PDA cell lines = assay: Cell proliferation in six human PDA cell lines; format: cell-based
Protocol: AsPC-1, BxPC-3, Capan-1, HPAF-II, MIA PaCa-2 and PANC-1 cells were seeded in 96-well plates and allowed to adhere overnight. After 24 h fresh media was added containing 0.5-10 μM concentrations of (S,S)-(HO)2DEHSPM alone or +0.5 μM GEM, +5 nM NAB, or + both, or containing GEM, NAB or GEM+NAB alone. Cell proliferation was measured in triplicate 24, 48, 72 and 96 h post-treatment and IC50 values were calculated.

[1] = system: locally advanced or metastatic PDA; assay: Phase 1 monotherapy dose escalation study, efficacy (RECIST, overall survival); format: in vivo, human
Protocol: Efficacy was assessed by RECIST criteria and overall survival.

[2] = Phase 1a/1b study in combination with G and A, pharmacokinetics; format: in vivo, human; conditions: for Cmax / Tmax: human, plasma, subcutaneous
Protocol: G (1000 mg/m^2) and A (125 mg/m^2) were administered intravenously on Days 1, 8, and 15 of each cycle. […] PK was evaluated on day 1 of cycle 1. Efficacy was assessed by CA19-9 levels, objective response was assessed by RECIST criteria, progression-free survival (PFS) and overall survival (OS).
This is a multicenter, open label, Phase 1a/1b study to evaluate to evaluate the safety, tolerability, pharmacokinetics and efficacy of (S,S)-(HO)2DEHSPM when administered in combination with G and A as first-line therapy in pancreatic cancer patients previously untreated for metastatic disease. The objective was to determine a recommended Phase 2 dose. Using a modified 3+3 dose escalation scheme, cohorts of subjects were dosed with subcutaneous injections of (S,S)-(HO)2DEHSPM at 0.2, 0.4 or 0.6 mg/kg days 1-5 of each 28-day cycle. Gemcitabine (1000 mg/m^2) and A (125 mg/m^2) were administered intravenously on Days 1, 8, and 15 of each cycle. […] PK was evaluated on day 1 of cycle 1. Efficacy was assessed by objective response rate (ORR) using RECIST criteria and by changes in CA19-9 levels. Subjects were treated until disease progression or the development of dose-limiting toxicity. Based upon initial safety findings and preliminary signals of efficacy, the protocol was amended to evaluate progression-free survival (PFS) and overall survival (OS) and expand the study to up to 36 subjects at the recommended Phase 2 dose. To date, 20 subjects were enrolled in cohorts 1-3 and evaluated for dose limiting toxicity and early signals of efficacy.

[3] = Phase 1a/1b Cohort 4, shortened daily/periodic dosing regimen, liver toxicity; format: in vivo, human; conditions: Cohort 4 regimen vs reference dosing regimen, particularly Cohort 3
Protocol: As part of the same study described in Example 4, one cohort of patients (Cohort 4) was administered a combination shortened daily dosing regimen/periodic dosing regimen and liver toxicities were compared to the reference dosing regimen described in Example 4.
Cohort 4 was administered 0.4 mg/kg/day of (S,S)-(HO)2DEHSPM for 5 consecutive days (for a total of 5 doses/cycle) beginning on day 1 (i.e. days 1-5) of each of Cycles 1 and 2. Thereafter Cohort 4 was administered 0.4 mg/kg/day of (S,S)-(HO)2DEHSPM on Days 1, 8 and 15 beginning on day 1 of Cycle 3 (for a total of 3 doses per cycle) and continuing for each cycle thereafter. Cohort 4 patients were treated for 3 to 6 or more total cycles depending on the individual patient's tolerance of treatment.

[4] = 4-week repeated dose toxicity study in rats; format: in vivo
Protocol: For the first-in-human (Phase 1a/1b) study, a starting dose of 0.05 mg/kg (1.8 mg/m^2) of (S,S)-(HO)2DEHSPM.4HCl was chosen as 1/10 the severely toxic dose (STD10) observed in a 4-week repeated dose toxicity study in rats (3 mg/kg/day; […]). This dose was chosen in accordance with the ICH S9 Guideline for the Nonclinical Development for Anti-Cancer Pharmaceuticals. For the Phase 1a/1b dosing schedule patients were administered up to 0.4 mg/kg/day Monday through Friday for 3 weeks for a total cumulative dose (TCD) of 6 mg/kg. In this animal experiment, one cycle consisted of 3 weeks of dosing and 5 weeks of rest for a total cycle length of 8 weeks.

clinical = conditions: human, in vivo
Protocol: (§1) Safety and tolerability were evaluated by clinical and laboratory assessments. PK was evaluated on Days 1 and 18 of cycle 1. Efficacy was assessed by RECIST criteria and overall survival.

[5] = Phase 1 monotherapy dose escalation study, safety and tolerability
Protocol: as §1

[6] = system: human L3.6pl pancreatic cancer cells; assay: Orthotopic implantation of L3.6pl pancreatic cancer cells into nude mice; conditions: for Median survival: control group 21 days
Protocol: These studies examined the anti-neoplastic effects of subcutaneous administration of (S,S)-(HO)2DEHSPM following orthotopic implantation of human L3.6pl pancreatic cancer cells into the pancreas of nude mice.
L3.6pl cells were injected into the pancreas of nude mice; treatment was initiated by group (n=10/group planned) 7-10 days later following establishment of tumors:
Study 1: saline (control), (S,S)-(HO)2DEHSPM (25 mg/kg), (S,S)-(HO)2DEHSPM (50 mg/kg), and (S,S)-(HO)2DEHSPM (100 mg/kg) daily (QD) for 4 to 6 weeks (wks).
Study 2: saline (control), (S,S)-(HO)2DEHSPM (25 mg/kg QD), (S,S)-(HO)2DEHSPM (25 mg/kg 3×/wk), (S,S)-(HO)2DEHSPM (15 mg/kg 3×/wk), and (S,S)-(HO)2DEHSPM (5 mg/kg 3×/wk) for 4 to 6 wks.
Study 3: saline (control), gemcitabine (GEM) (100 mg/kg 2×/wk, intraperitoneally), (S,S)-(HO)2DEHSPM (25 mg/kg 3×/wk), and (S,S)-(HO)2DEHSPM+GEM for 4 to 6 wks.

[7] = Study 3, compared with controls, GEM 100 mg/kg 2×/wk ip, (S,S)-(HO)2DEHSPM 25 mg/kg 3×/wk

In the case of `CCNCCC(O)CNCCCCNCC(O)CCNCC` [(S,S)-(HO)2DEHSPM, (6S,15S)-3,8,13,18-teraazaicosane-6,15-diol], the anti-proliferative effect (six human PDA cell lines; 0.5-10 μM, maximal inhibition most often with 10 μM) is reported as “anti-proliferative effect in all cell lines”, the “inhibition by (S,S)-(HO)2DEHSPM alone compared with GEM+NAB” value (six human PDA cell lines; ASPC-1, BxPC-3 and Capan-1 cells, p<0.005) is reported as “greater inhibition than GEM+NAB” and the Stable disease ([1]; cohort 3 (0.2 mg/kg), N=4) is reported as 2 patients. For the same compound, the Median survival ([1]; cohort 3 (0.2 mg/kg), N=4, heavily pre-treated PDA patients) was 5.9 months, the Stable disease ([1]; cohort 4 (0.4 mg/kg), N=7) was 2 patients and the Stable disease ([1]; cohort 5 (0.8 mg/kg), N=10) was 4 patients. For the same compound, the PK parameters ([2]; cohort 1 (0.2 mg/kg), day 1 of cycle 1) was “below the limits of detection at most time points”, the Cmax ([2]; sc, Cohort 1 (0.2 mg/kg) N=4, day 1 of cycle 1, read-out: Cmax Mean) was 26.6 ng/mL and the Cmax ([2]; sc, Cohort 2 (0.4 mg/kg) N=7, day 1 of cycle 1, read-out: Cmax Mean) was 115 ng/mL. It also gave a Cmax ([2]; sc, Cohort 3 (0.6 mg/kg) N=5, day 1 of cycle 1, read-out: Cmax Mean) of 147 ng/mL, a Tmax ([2]; Cohort 1 (0.2 mg/kg) N=4) of 30 min and a Cmax ([2]; Cohort 1 (0.2 mg/kg) N=4, read-out: Cmax Range) of 13.2 to 41.6 ng/mL. For the same compound, the Tmax ([2]; Cohort 2 (0.4 mg/kg) N=7) was 30 min, the Cmax ([2]; Cohort 2 (0.4 mg/kg) N=7, read-out: Cmax Range) was 77.1 to 167 ng/mL and the Tmax ([2]; Cohort 3 (0.6 mg/kg) N=5) was 30 min. For the same compound, the Cmax ([2]; Cohort 3 (0.6 mg/kg) N=5, read-out: Cmax Range) was 91.9 to 195 ng/mL, the “severe liver toxicities compared to cohorts of Example 4” value [3] was “unexpectedly reduced or eliminated” and the “severely toxic dose (STD10)” value [4] was 3 mg/kg/day. The MTD at 3 weeks (clinical) was < 0.8 mg/kg and < 0.8 mg/kg/day, the “drug-related bone marrow suppression or peripheral neuropathy” value ([5]; any dose) was “No drug-related bone marrow suppression or peripheral neuropathy was seen at any dose” and the “focal pancreatitis at the site of the tumor” value ([5]; cohort 4 (0.4 mg/kg), at 2.3 months) was “one patient in cohort 4 developed focal pancreatitis”. The DLTs ([5]; cohort 5 (0.8 mg/kg), N=10) was “Three patients in cohort 5 developed serious adverse events considered dose limiting toxicities”, the DLTs ([5]; cohorts 1-4 (0.05-0.4 mg/kg)) was “No DLTs occurred” and the “drug-related serious adverse events (SAEs) or dose limiting toxicities (DLTs)” value ([5]; up to 0.4 mg/kg/day Monday through Friday×3 weeks (TCD~6 mg/kg per 8 week cycle)) was “No drug-related serious adverse events (SAEs) or dose limiting toxicities (DLTs) were observed”. For the same compound, the “reduction in pancreas weight” value ([6]; Study 1, 25 mg/kg QD subcutaneous, 4 to 6 wks, tumor bearing mice) was 82.9%, the toxicity / deaths ([6]; Study 1, 50 and 100 mg/kg QD) was “earlier deaths and proved to be toxic” and the “decreases in pancreas weight and tumor volume” value ([6]; Study 2, 5 mg/kg 3×/wk) was “no decreases were noted”. For the same compound, the “decrease in pancreas weight” value ([6]; Study 2, 15 mg/kg 3×/wk) was 20.1%, the “decrease in tumor volume” value ([6]; Study 2, 15 mg/kg 3×/wk) was 52.6% and the “reduction in pancreas weight” value ([6]; Study 2, 25 mg/kg 3×/wk) was 47.8%. For the same compound, the “reduction in tumor volume” value ([6]; Study 2, 25 mg/kg 3×/wk) was 66.6%, the Median survival ([6]; Study 2, 25 mg/kg 3×/wk) was 42 days and the “reduction in pancreas weight” value ([6]; Study 2, 25 mg/kg QD) was 72.7%. For the same compound, the “reduction in tumor volume” value ([6]; Study 2, 25 mg/kg QD) was 81.4%, the Median survival ([6]; Study 2, 25 mg/kg QD) was 32 days and the “decreases in body weight” value ([6]; Study 3, GEM 100 mg/kg 2×/wk ip, (S,S)-(HO)2DEHSPM 25 mg/kg 3×/wk, 4 to 6 wks) was 35.6%. The “decreases in pancreas weight” value [6, 7] was 58.8% and the “decreases in tumor volume” value [6, 7] was 58.4%.
